# According to US7163946B2 (Ligand Pharmaceuticals Incorporated, priority 2002, dated 2007):
# Key:
# Type in all cases: cell-based
# [1] = biological target: T1, hPR (Homo sapiens, UniProt P06401); experiment: hPR cotransfection assay in CV-1 cells, agonist mode; conditions: for Emax: CV-1, CV-1 cells, relative to maximal response of progesterone as 100%, read-out: hPR Agonist CV-1 Cells Eff. (%)
# T1 sequence (P06401 1-933): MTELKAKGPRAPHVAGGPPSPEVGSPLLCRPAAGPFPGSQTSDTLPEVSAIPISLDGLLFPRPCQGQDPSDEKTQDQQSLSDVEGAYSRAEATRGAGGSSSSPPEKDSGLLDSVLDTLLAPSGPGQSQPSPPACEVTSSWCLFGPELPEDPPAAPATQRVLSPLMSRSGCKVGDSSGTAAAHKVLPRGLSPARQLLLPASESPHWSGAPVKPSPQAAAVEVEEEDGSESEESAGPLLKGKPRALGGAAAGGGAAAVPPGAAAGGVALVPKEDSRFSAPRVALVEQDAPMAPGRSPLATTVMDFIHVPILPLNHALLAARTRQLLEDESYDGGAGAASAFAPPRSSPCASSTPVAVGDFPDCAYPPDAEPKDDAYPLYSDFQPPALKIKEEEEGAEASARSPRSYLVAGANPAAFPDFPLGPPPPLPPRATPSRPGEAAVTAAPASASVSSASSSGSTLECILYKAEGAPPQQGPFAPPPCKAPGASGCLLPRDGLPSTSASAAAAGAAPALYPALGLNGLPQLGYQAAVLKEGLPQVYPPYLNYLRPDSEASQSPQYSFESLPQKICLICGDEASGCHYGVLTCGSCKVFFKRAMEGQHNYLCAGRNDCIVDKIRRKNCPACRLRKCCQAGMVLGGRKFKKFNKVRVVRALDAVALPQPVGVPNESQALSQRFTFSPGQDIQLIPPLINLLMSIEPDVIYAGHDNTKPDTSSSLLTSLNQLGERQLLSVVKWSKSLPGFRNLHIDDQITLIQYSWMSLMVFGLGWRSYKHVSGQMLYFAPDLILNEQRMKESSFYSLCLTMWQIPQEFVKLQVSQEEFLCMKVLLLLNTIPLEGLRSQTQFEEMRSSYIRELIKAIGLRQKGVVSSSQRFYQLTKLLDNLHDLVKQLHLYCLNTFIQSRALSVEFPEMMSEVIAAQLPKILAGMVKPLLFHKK
# Procedure: (§1) Antagonist efficacy was determined as a function (%) of maximal inhibition of a reference agonist at EC50 concentration. All the cotransfection experiments were carried out in 96-well plates by automation (Beckman Biomomek automated workstation).
# [2] = biological target: T1, hPR; experiment: hPR cotransfection assay in CV-1 cells, antagonist mode; conditions: for Emax: CV-1, CV-1 cells, maximal inhibition of reference agonist at EC50 concentration, read-out: hPR Antagonist CV-1 Cells Eff. (%); for IC50: CV-1 cells
# Procedure: as §1
# [3] = biological target: T2, hPR (Homo sapiens, UniProt P06401); experiment: T47D alkaline phosphatase assay, agonist mode; conditions: T47D human breast cancer cells; for Emax: T47D, read-out: hPR Agonist T47D cells Eff. (%)
# T2 sequence (P06401 679-933 limits assumed): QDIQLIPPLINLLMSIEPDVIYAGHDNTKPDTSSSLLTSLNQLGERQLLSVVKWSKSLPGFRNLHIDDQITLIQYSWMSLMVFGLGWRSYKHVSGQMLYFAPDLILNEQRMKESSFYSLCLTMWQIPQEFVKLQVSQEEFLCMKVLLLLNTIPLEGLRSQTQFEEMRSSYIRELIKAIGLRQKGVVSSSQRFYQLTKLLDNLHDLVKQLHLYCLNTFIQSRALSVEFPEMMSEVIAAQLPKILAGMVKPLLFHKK
# Source text: The potential tissue-selectivities of the selected analogues were examined by using the T47D alkaline phosphatase assay that was developed from human breast cancer cells with endogenous PRs.
# [4] = biological target: T3, human mineralocorticoid receptor (hMR) (Homo sapiens, UniProt P08235); experiment: hMR cotransfection assay (potency ratio to hPR); conditions: receptor-selectivity potency ratio, cotransfection assays
# T3 sequence (P08235 1-984): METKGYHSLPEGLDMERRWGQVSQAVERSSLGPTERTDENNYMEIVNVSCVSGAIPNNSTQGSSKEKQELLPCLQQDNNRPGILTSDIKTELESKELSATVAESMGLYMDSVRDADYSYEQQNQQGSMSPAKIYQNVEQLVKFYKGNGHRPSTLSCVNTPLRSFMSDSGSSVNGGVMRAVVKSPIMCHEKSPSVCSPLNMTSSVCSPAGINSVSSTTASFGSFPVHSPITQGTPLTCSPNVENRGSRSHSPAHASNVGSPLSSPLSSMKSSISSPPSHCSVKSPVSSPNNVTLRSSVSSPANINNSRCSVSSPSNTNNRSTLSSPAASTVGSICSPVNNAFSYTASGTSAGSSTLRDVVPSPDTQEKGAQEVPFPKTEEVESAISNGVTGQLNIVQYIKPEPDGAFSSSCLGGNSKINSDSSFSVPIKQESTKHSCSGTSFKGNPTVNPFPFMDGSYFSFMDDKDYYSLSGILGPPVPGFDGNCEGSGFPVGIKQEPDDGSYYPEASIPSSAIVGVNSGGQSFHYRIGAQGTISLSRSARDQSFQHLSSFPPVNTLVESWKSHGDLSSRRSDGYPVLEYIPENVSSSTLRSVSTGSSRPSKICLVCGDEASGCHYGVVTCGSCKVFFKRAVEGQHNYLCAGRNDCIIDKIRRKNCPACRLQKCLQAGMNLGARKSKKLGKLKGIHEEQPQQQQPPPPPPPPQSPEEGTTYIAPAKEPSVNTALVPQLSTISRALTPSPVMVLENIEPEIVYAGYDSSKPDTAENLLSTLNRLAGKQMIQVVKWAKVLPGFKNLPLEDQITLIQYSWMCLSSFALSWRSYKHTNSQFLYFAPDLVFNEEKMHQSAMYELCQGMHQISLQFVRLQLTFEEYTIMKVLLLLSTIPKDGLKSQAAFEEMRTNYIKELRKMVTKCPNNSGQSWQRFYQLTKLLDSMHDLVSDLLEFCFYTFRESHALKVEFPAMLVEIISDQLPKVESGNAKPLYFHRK
# Procedure: as §1
# [5] = CV-1 cells, read-out: hPR Agonist CV-1 Cells EC50
# [6] = Tables 3 and 4, values without footnote, read-out: hPR agonist potencies (EC50 in nM) in the cotransfection assay
SMILES,Emax [1] [%],"EC50 [1, 5] [nM]","EC50 [1, 6] [nM]",Emax [2] [%],IC50 [2] [nM],EC50 [3] [nM],Emax [3] [%],hMR EC50 or IC50/hPR EC50 [4]
"CC1=CC(C)(C)Nc2ccc3c(c21)C(c1ccccc1)Oc1c(F)cc(F)cc1-3 (racemic) [Compound 33, (±)-7,9-difluoro-5-phenyl-1,2-dihydro-2,2,4-trimethyl-5H-chromeno[3,4-f]quinoline]",85,3.5,3.5,< 20,> 10000,35,62,>1000
"CC1=CC(C)(C)Nc2ccc3c(c21)C(c1cccc(C)c1)Oc1c(F)cc(F)cc1-3 (racemic) [Compound 34, (±)-7,9-difluoro-5-(3-methylphenyl)-1,2-dihydro-2,2,4-trimethyl-5H-chromeno[3,4-f]quinoline]",114,1.2,1.2,< 20,> 10000,34,60,>1000
"CC1=CC(C)(C)Nc2ccc3c(c21)C(c1ccc(Cl)c(C)c1)Oc1c(F)cc(F)cc1-3 (racemic) [Compound 37, (±)-7,9-difluoro-5-(4-chloro-3-methylphenyl)-1,2-dihydro-2,2,4-trimethyl-5H-chromeno[3,4-f]quinoline]",89,1.24,1.24,< 20,> 10000,130,50,>1000
"CC1=CC(C)(C)Nc2ccc3c(c21)C(c1cccc(Cl)c1)Oc1c(F)cc(F)cc1-3 (racemic) [Compound 41, (±)-7,9-difluoro-5-(3-chlorophenyl)-1,2-dihydro-2,2,4-trimethyl-5H-chromeno[3,4-f]quinoline]",146,1.87,1.87,< 20,> 10000,42,54,905
"CC1=CC(C)(C)Nc2ccc3c(c21)C(c1cc2ccccc2s1)Oc1c(F)cc(F)cc1-3 (racemic) [Compound 63, (±)-7,9-difluoro-5-(benzo[b]thien-2-yl)-1,2-dihydro-2,2,4-trimethyl-5H-chromeno[3,4-f]quinoline]",154,2.3,–,< 20,> 10000,20,61,>1000
"CC#CC1Oc2c(F)cc(F)cc2-c2ccc3c(c21)C(C)=CC(C)(C)N3 (racemic) [Compound 74, (±)-7,9-difluoro-5-(1-propynyl)-1,2-dihydro-2,2,4-trimethyl-5H-chromeno[3,4-f]quinoline]",89,0.7,–,< 20,> 10000,4.6,58,>1000
"CC1=CC(C)(C)Nc2ccc3c(c21)/C(=C/c1ccccc1)Oc1c(F)cc(F)cc1-3 [Compound 10, 7,9-difluoro-5(Z)-benzylidene-1,2-dihydro-2,2,4-trimethyl-5H-chromeno[3,4-f]quinoline]",153,4.9,4.9,< 20,> 10000,30,54,>1000
"CC1=CC(C)(C)Nc2ccc3c(c21)/C(=C/c1ccncc1)Oc1c(F)cc(F)cc1-3 [Compound 14, 7,9-difluoro-5(Z)-(4-picolylidene)-1,2-dihydro-2,2,4-trimethyl-5H-chromeno[3,4-f]quinoline]",103,7.4,7.4,< 20,> 10000,49,58,>1000
"CC1=CC(C)(C)Nc2ccc3c(c21)/C(=C/c1cccc(F)c1)Oc1c(F)cc(F)cc1-3 [Compound 15, 7,9-difluoro-5(Z)-(3-fluorobenzylidene)-1,2-dihydro-2,2,4-trimethyl-5H-chromeno[3,4-f]quinoline]",191,3.8,3.8,< 20,> 10000,19,56,>1000
"CC1=CC(C)(C)Nc2ccc3c(c21)/C(=C/c1cc(F)ccc1F)Oc1c(F)cc(F)cc1-3 [Compound 17, 7,9-difluoro-5(Z)-(2,5-difluorobenzylidene)-1,2-dihydro-2,2,4-trimethyl-5H-chromeno[3,4-f]quinoline]",169,2.9,2.9,< 20,> 10000,12,62,>1000
"COc1ccccc1/C=C1\Oc2c(F)cc(F)cc2-c2ccc3c(c21)C(C)=CC(C)(C)N3 [Compound 18, 7,9-difluoro-5(Z)-(2-methoxybenzylidene)-1,2-dihydro-2,2,4-trimethyl-5H-chromeno[3,4-f]quinoline]",142,1.3,1.3,< 20,> 10000,17,57,>1000
"CC1=CC(C)(C)Nc2ccc3c(c21)/C(=C/c1cc(F)ccc1C)Oc1c(F)cc(F)cc1-3 [Compound 19, 7,9-difluoro-5(Z)-(2-methyl-5-fluorobenzylidene)-1,2-dihydro-2,2,4-trimethyl-5H-chromeno[3,4-f]quinoline]",212,1.4,1.4,< 20,> 10000,8.7,65,>1000
"CC1=CC(C)(C)Nc2ccc3c(c21)/C(=C/c1ccncc1C)Oc1c(F)cc(F)cc1-3 [Compound 20, 7,9-difluoro-5(Z)-(3-methyl-4-picolylidene)-1,2-dihydro-2,2,4-trimethyl-5H-chromeno[3,4-f]quinoline]",147,2.8,2.8,< 20,> 10000,6.6,63,>1000
